# How the values were obtained:
# [1] = tested on: Mycobacterium tuberculosis; experiment: Antibacterial activity against Mycobacterium tuberculosis; assay type: functional
# [2] = Inhibition of Mycobacterium tuberculosis Zmp1
# Candida [3] = experiment: Antibiofilm activity against Candida; assay type: functional
# Chlamydia trachomatis = experiment: Bactericidal activity against Chlamydia trachomatis; assay type: functional
# Cryptococcus neoformans = experiment: Antifungal activity against Cryptococcus neoformans; assay type: functional
# Enterococcus faecalis [4] = experiment: Antibacterial activity against Enterococcus faecalis; assay type: functional
# [5] = Inhibition of Aeromonas proteolytica aminopeptidase; set-up: species or system Vibrio proteolyticus
# Aspergillus = experiment: Antifungal activity against Aspergillus; assay type: functional
# Candida albicans [6] = experiment: Antibiofilm activity against Candida albicans; assay type: functional
# Salmonella typhimurium [7] = experiment: Antibacterial activity against Salmonella typhimurium; assay type: functional, Salmonella enterica subsp. enterica serovar Typhimurium; settings: Salmonella enterica
# Candida albicans [8] = experiment: Antifungal activity against Candida albicans; assay type: functional
# Salmonella sp. = experiment: Antibacterial activity against Salmonella sp.; assay type: functional
# Bacillus subtilis [9] = experiment: Antibacterial activity against Bacillus subtilis; assay type: functional
# [10] = Inhibition of Mycobacterium tuberculosis MetAP1a
# [11] = Inhibition of Mycobacterium tuberculosis MetAP1c
# Aspergillus niger = experiment: Antifungal activity against Aspergillus niger; assay type: functional
# Citrobacter freundii = experiment: Antibacterial activity against Citrobacter freundii; assay type: functional
# Listeria monocytogenes = experiment: Antibacterial activity against Listeria monocytogenes; assay type: functional
# Micrococcus luteus = experiment: Antibacterial activity against Micrococcus luteus ATCC 10240; assay type: functional
# Staphylococcus aureus [12] = experiment: Antibacterial activity against Staphylococcus aureus ATCC 29213; assay type: functional
# [13] = tested on: Staphylococcus epidermidis; experiment: Antibacterial activity against Staphylococcus epidermidis ATCC 12228; assay type: functional
# [14] = target: Methionine aminopeptidase 1 (Homo sapiens, UniProt P53582); experiment: Inhibition of human MetAP1
# Aeromonas hydrophila = experiment: Antibacterial activity against Aeromonas hydrophila; assay type: functional
# Bacillus subtilis [15] = experiment: Antibacterial activity against Bacillus subtilis ATCC 6633; assay type: functional
# Enterococcus faecalis [16] = experiment: Antibacterial activity against Enterococcus faecalis ATCC 33186; assay type: functional
# Morganella morganii = experiment: Antibacterial activity against Morganella morganii; assay type: functional
# [17] = tested on: Corynebacterium diphtheriae; experiment: Antibacterial activity against Corynebacterium diphtheriae NCTC 10356; assay type: functional
# [18] = target: Methionine aminopeptidase 2 (Homo sapiens, UniProt P50579); experiment: Inhibition of human MetAP2
# Sequence of Methionine aminopeptidase 2 (P50579 whole entry): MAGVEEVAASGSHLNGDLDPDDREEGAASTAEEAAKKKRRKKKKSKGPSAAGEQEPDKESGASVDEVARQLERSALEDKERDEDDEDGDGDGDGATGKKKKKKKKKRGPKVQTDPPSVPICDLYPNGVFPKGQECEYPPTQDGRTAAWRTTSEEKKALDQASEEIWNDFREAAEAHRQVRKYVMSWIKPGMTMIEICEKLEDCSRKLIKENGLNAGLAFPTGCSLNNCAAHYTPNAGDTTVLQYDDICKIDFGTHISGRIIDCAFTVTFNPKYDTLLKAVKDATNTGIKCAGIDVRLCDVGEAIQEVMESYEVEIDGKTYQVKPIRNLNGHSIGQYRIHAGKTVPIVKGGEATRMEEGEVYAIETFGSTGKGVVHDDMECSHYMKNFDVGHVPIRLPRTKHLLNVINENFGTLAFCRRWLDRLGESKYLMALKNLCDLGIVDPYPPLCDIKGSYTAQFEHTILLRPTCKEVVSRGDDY
# Staphylococcus aureus [19] = experiment: Antibacterial activity against Staphylococcus aureus ATCC 25923; assay type: functional
# Escherichia coli = experiment: Antibacterial activity against Escherichia coli ATCC 25922; assay type: functional
# Plesiomonas shigelloides = experiment: Antibacterial activity against Plesiomonas shigelloides; assay type: functional
# Klebsiella pneumoniae = experiment: Antibacterial activity against Klebsiella pneumoniae ATCC 700603; assay type: functional
# Stutzerimonas stutzeri = experiment: Antibacterial activity against Pseudomonas stutzeri ATCC 17587; assay type: functional
# [20] = tested on: Achromobacter xylosoxidans; experiment: Antibacterial activity against Achromobacter xylosoxidans ATCC 2706; assay type: functional
# Shigella dysenteriae = experiment: Antibacterial activity against Shigella dysenteriae; assay type: functional
# Serratia marcescens = experiment: Antibacterial activity against Serratia marcescens ATCC 8100; assay type: functional
# Salmonella enterica = experiment: Antibacterial activity against Salmonella choleraesuis ATCC 10708; assay type: functional
# Bacillus cereus = experiment: Antibacterial activity against Bacillus cereus; assay type: functional
# Enterococcus faecalis [21] = experiment: Antibacterial activity against Enterococcus faecalis ATCC 29212; assay type: functional
# Shewanella putrefaciens = experiment: Antibacterial activity against Shewanella putrefaciens ATCC 8071; assay type: functional
# Candida [22] = experiment: Antifungal activity against Candida; assay type: functional
# Arthrodermataceae = experiment: […] activity against Arthrodermataceae; assay type: functional
# Salmonella enteritidis = experiment: Antibacterial activity against Salmonella enteritidis; assay type: functional, Salmonella enterica subsp. enterica serovar Enteritidis; settings: Salmonella enterica
# Salmonella typhimurium [23] = experiment: Antibacterial activity against Salmonella typhimurium ATCC 13311; assay type: functional, Salmonella enterica subsp. enterica serovar Typhimurium; settings: Salmonella enterica
structure (smiles),measurement,setting,value
Cc1ccc2[nH]c(-c3ccccc3)c(C(NNC(=O)c3ccncc3)c3ccc4cccnc4c3O)c2c1 (configuration not stated),MIC,[1],100 µM
O=C(NCCCc1ccccc1)c1ccc2cccc(O)c2n1,IC50,[2],> 10 µM
O=S(=O)(Nc1ccc(Cl)cc1)c1ccc(O)c2ncccc12,MIC,Candida [3],3 µM
OC(COc1ccccc1)COc1cccc2cccnc12 (configuration not stated),MIC,[1],42.3 µM
O=C(NCCN1OCC(NC(=O)c2ccc3cccc(O)c3n2)C1=O)c1ccc2cccc(O)c2n1 (configuration not stated),MBC,Chlamydia trachomatis,5 µM
Cc1ccc(S(=O)(=O)OCCn2cc(COc3cccc4cccnc34)nn2)cc1,MIC80,Cryptococcus neoformans,2.36 µM
O=C(CSc1nnc(COc2cccc3cccnc23)n1-c1ccccc1)Nc1nc2cc(F)ccc2s1,MIC,Enterococcus faecalis [4],28.8 µM
Oc1cccc2ccc(/C=C/c3cccc(F)c3)nc12,MIC,[1],13 µM
CNS(=O)(=O)c1cc(Cl)c2cccnc2c1O,Ki,[5],> 100 µM
COc1ccc(CN2CCN(c3nc(Nc4ccc(C#N)cc4)nc(Oc4cccc5cccnc45)n3)CC2)c(OC)c1OC,MIC,Aspergillus,9.8 µM
CC(=O)Oc1c(Br)cc(Br)c2ccc(C)nc12,MIC,Candida albicans [6],12.5 µM
O=C(CSc1nnc(COc2cccc3cccnc23)n1-c1ccccc1)Nc1nc2cc([N+](=O)[O-])ccc2s1,MIC,Salmonella typhimurium [7],13.7 µM
same,MIC,Enterococcus faecalis [4],27.4 µM
N#Cc1ccc(Nc2nc(Oc3cccc4cccnc34)nc(N3CCN(c4ccccn4)CC3)n2)cc1C(F)(F)F,MIC,[1],439 µM
same,MIC,Candida albicans [8],9.8 µM
O=C(NNC(c1ccc2cccnc2c1O)c1c(-c2ccccc2)[nH]c2ccccc12)c1ccncc1 (configuration not stated),MIC,[1],103 µM
O=C(NCCc1ccccc1)c1ccc2cccc(O)c2n1,IC50,[2],> 10 µM
N#Cc1ccc(Nc2nc(Oc3cccc4cccnc34)nc(N3CCN(c4cccc(Cl)c4Cl)CC3)n2)cc1C(F)(F)F,MIC,Aspergillus,9.8 µM
same,MIC,[1],19.6 µM
O=C(NNC(c1ccc2cccnc2c1O)c1c(-c2ccccc2)[nH]c2ccc(Cl)cc12)c1ccncc1 (configuration not stated),MIC,[1],24 µM
C=CCONC(=O)c1ccc2cccc(O)c2n1,IC50,[2],0.123 µM
CONC(=O)c1ccc2cccc(O)c2n1,IC50,[2],0.115 µM
O=C(NNC(c1ccc2cccnc2c1O)c1c[nH]c2ccccc12)c1ccncc1 (configuration not stated),MIC,[1],122 µM
CC1CC(C)CN(c2nc(Nc3ccc(C#N)c(C(F)(F)F)c3)nc(Oc3cccc4cccnc34)n2)C1 (configuration not stated),MIC,[1],6 µM
Cc1nc2[nH]nc(/N=N/c3ccc(O)c4ncccc34)c2c(C)c1Br,MIC,Salmonella sp.,4.91 µM
same,MIC,Bacillus subtilis [9],19.7 µM
CNc1ccc2cccc(O)c2n1,MIC,[1],6.4 µM
O=C(O)c1cn(C2CC2)c2cc(N3CCN(C(=O)c4ccc5cccc(O)c5n4)CC3)c(F)cc2c1=O,MBC,Chlamydia trachomatis,5 µM
CC(=O)Oc1c(Cl)cc(Cl)c2cccnc12,IC50,[10],4.87 µM
same,IC50,[11],4.92 µM
Cc1ccccc1OCC(O)COc1cccc2cccnc12 (configuration not stated),MIC,[1],23.3 µM
OC(COc1ccc(Cl)cc1)COc1cccc2cccnc12 (configuration not stated),MIC,[1],9.85 µM
O=C(NCCO[C@@H]1O[C@H](CO)[C@@H](O)[C@H](O)[C@H]1O)c1ccc2cccnc2c1O,MIC,Candida albicans [8],10000 µM
O=C(NCCO[C@H]1O[C@H](CO)[C@@H](O)[C@H](O)[C@@H]1O)c1ccc(O)c2ncccc12,MIC,Candida albicans [8],5000 µM
Brc1cccc(COc2cccc3cccnc23)c1,MIC,Aspergillus niger,9.94 µM
Cc1ccc2cccc(O)c2n1 [8-HYDROXY QUINALDINE],Ki,[5],> 100 µM
O=C(O)c1cn(C2CC2)c2cc(N3CCNCC3)c(F)cc2c1=O [CIPROFLOXACIN],MBC,Chlamydia trachomatis,> 50 µM
Oc1c(I)cc(Cl)c2cccnc12 [CLIOQUINOL],MIC,Citrobacter freundii,> 26.2 µM
same,MIC,Listeria monocytogenes,26.2 µM
same,MIC,Micrococcus luteus,26.2 µM
same,MIC,Staphylococcus aureus [12],26.2 µM
same,IC50,[10],9.25 µM
same,Ki,[5],> 100 µM
same,MIC,[13],26.2 µM
same,IC50,[14],84.7 µM
same,MIC,Aeromonas hydrophila,> 26.2 µM
same,MIC,Bacillus subtilis [15],26.2 µM
same,MIC,Enterococcus faecalis [16],26.2 µM
same,IC50,[11],11.2 µM
same,MIC,Morganella morganii,> 26.2 µM
same,MIC,[17],26.2 µM
same,IC50,[18],80.4 µM
same,MIC,Staphylococcus aureus [19],26.2 µM
same,MIC,Escherichia coli,> 26.2 µM
same,MIC,Plesiomonas shigelloides,> 26.2 µM
same,MIC,Klebsiella pneumoniae,> 26.2 µM
same,MIC,Stutzerimonas stutzeri,> 26.2 µM
same,MIC,[20],> 26.2 µM
same,MIC,Shigella dysenteriae,> 26.2 µM
same,MIC,[1],32.7 µM
same,MIC,Serratia marcescens,> 26.2 µM
same,MIC,Salmonella enterica,> 26.2 µM
same,MIC,Bacillus cereus,26.2 µM
same,MIC,Enterococcus faecalis [21],26.2 µM
same,MIC,Shewanella putrefaciens,> 26.2 µM
same,MIC,Candida [22],0.206 µM
same,MIC,Arthrodermataceae,0.409 µM
same,MIC,Salmonella enteritidis,> 26.2 µM
same,MIC,Salmonella typhimurium [23],> 26.2 µM
Oc1ccc(Cl)c2cccnc12 [CLOXYQUIN],Ki,[5],0.16 µM
O=[N+]([O-])c1ccc(O)c2ncccc12 [NITROXOLINE],IC50,[5],29 µM
Oc1cccc2cccnc12 [OXYQUINOLINE],Ki,[5],0.58 µM

# Source: ChEMBL document CHEMBL5226349, “Novel Antimicrobial 8-Hydroxyquinoline-Based Agents: Current Development, Structure-Activity Relationships, and Perspectives” (J Med Chem, 2021)
